Assay results reported in ChEMBL document CHEMBL1926633, “1,2,4-Triazole D-ribose derivatives: design, synthesis and antitumoral evaluation” (Eur J Med Chem, 2012).

Columns and labels:
[1] = Cytotoxicity against mouse BW5147 cells expressing H-2 k haplotype, CD3+ and TCRalphabeta assessed as cell proliferation at 1 ug/mL after 24 hrs by [3H]TdR incorporation assay relative to control; assay type: functional; conditions: read-out: Activity
[2] = Cytotoxicity against mouse BW5147 cells expressing H-2 k haplotype, CD3+ and TCRalphabeta assessed as cell proliferation at 10 ug/mL after 24 hrs by [3H]TdR incorporation assay relative to control; assay type: functional; conditions: read-out: Activity
[3] = Cytotoxicity against mouse BW5147 cells expressing H-2 k haplotype, CD3+ and TCRalphabeta assessed as cell proliferation at 50 ug/mL after 24 hrs by [3H]TdR incorporation assay relative to control; assay type: functional; conditions: read-out: Activity
[4] = Cytotoxicity against mouse BW5147 cells expressing H-2 k haplotype, CD3+ and TCRalphabeta assessed as cell proliferation at 100 ug/mL after 24 hrs by [3H]TdR incorporation assay relative to control; assay type: functional; conditions: read-out: Activity
[5] = Lipophilicity, log P of the compound; assay type: physicochemical; conditions: octanol/water

SMILES	logP [5]	growth at 1 µg/mL [1] [%]	growth at 10 µg/mL [2] [%]	growth at 50 µg/mL [3] [%]	growth at 100 µg/mL [4] [%]
COc1cc(C2=NOC(CO[C@@H]3O[C@H](Cn4c(SCc5ccccc5)nnc4-c4ccc(Cl)cc4)[C@H]4OC5(CCCC5)O[C@@H]34)C2)cc(OC)c1OC (mixture of isomers)	1.97	215	60	-18	-45
C=CCO[C@@H]1O[C@H](Cn2c(-c3ccc(Cl)cc3)n[nH]c2=S)[C@H]2OC3(CCCC3)O[C@@H]12	1.91	49	44	70	123
C=CCO[C@@H]1O[C@H](Cn2c(SCc3ccccc3)nnc2-c2ccc(Cl)cc2)[C@H]2OC3(CCCC3)O[C@@H]12	1.63	37	0	-13	
C=CCO[C@@H]1O[C@H](CSc2ncn[nH]2)[C@H]2OC3(CCCC3)O[C@@H]12	1.95	-7	-9	-29	-43
C=CCO[C@@H]1O[C@H](Cn2c(-c3ccc(Cl)cc3)n[nH]c2=S)[C@@H](O)[C@H]1O	0.18	-1.5	6	4.4	2

Second part, led by results:

logP [5]	SMILES	growth at 1 µg/mL [1] [%]	growth at 10 µg/mL [2] [%]	growth at 50 µg/mL [3] [%]	growth at 100 µg/mL [4] [%]
-2.45	C=CCO[C@@H]1O[C@H](CSc2ncn[nH]2)[C@@H](O)[C@H]1O	-2.4	-3	-14	-38
-0.52	COc1cc(C2=NOC(CO[C@@H]3O[C@H](CSc4ncn[nH]4)[C@@H](O)[C@H]3O)C2)cc(OC)c1OC (mixture of isomers)	93	51	43	29
1.17	COc1cc(C2=NOC(CO[C@@H]3O[C@H](Cn4c(SCc5ccccc5)nnc4-c4ccc(Cl)cc4)[C@@H](O)[C@H]3O)C2)cc(OC)c1OC (mixture of isomers)	143	210	-52	-67
0.9	COc1cc(C2=NOC(CO[C@@H]3O[C@H](CSc4ncn[nH]4)[C@H]4OC5(CCCC5)O[C@@H]34)C2)cc(OC)c1OC (mixture of isomers)	-5	-21	-24	-45
